Values quoted from earlier work, collected in PMC8356818 (Chemical Science, 2021).

Key:
[1] = H4qp2 ligand, 25 °C
[2] = direct stopped-flow measurements
[3] = not given; remark: listed apart in the source

Compound: Oc1ccc(O)c(CN(CCN(Cc2ccccn2)Cc2cc(O)ccc2O)Cc2ccccn2)c1 [Complex H4qp2, N,N′-bis(2,5-dihydroxybenzyl)-N,N′-bis(2-pyridinylmethyl)-1,2-ethanediamine]
- pKL1 ([1]; KL1 = [(H5qp2)^+][H^+]/[(H6qp2)^2+]): 4.47 (±0.08)
- pKL2 ([1]; KL2 = [(H4qp2)][H^+]/[(H5qp2)^+]): 7.18 (±0.03)

Compound: C[C@@H]1N[C@@H]2CCCC[C@H]2NCCN[C@@H]2CCCC[C@H]2N[C@@H](C)c2cccc1n2.[Cl-].[Cl-].[Mn+2] [Complex M40401]
- catalytic rate [2]: approximately 1.5 × 10^9 M^−1 s^−1
- pMn (stability in water): 4.7

Compound: Mn^IIBr8TM-4-PyP^4+
- estimated log kcat if the catalyst were fully intact [3]: exceed 8.67
- log kcat ([3]; determined by the cytochrome c assay): 8.34
- Mn estimated to be lost (release of free manganese) (neutral pH): approximately 30%
